Data taken from US10300055B2, “Treatment of parkinson's disease through ARFGAP1 inhibition” (Dalhousie University, priority 2014, dated 2019).

The compounds below were run against T1, hArfGAP1 (human ArfGAP1) (Homo sapiens, UniProt Q8N6T3) (assay: Yeast growth restoration screen: S. cerevisiae gcs1 knockout strain expressing hArfGAP1). Conditions: retest at various concentrations, FIG. 5; A600; compared with 3B-VEC empty vector strain.
T1 construct: expressed in transfected cells; host or cells: Saccharomyces cerevisiae strain PPY17:114-3B-141-A (gcs1::NatR, pdr5::HIS3, snq2::TRP1), galactose-induced
Format: cell-based
From the text: Overexpression of heterologous proteins in the yeast Saccharomyces cerevisiae often inhibits its growth, while inhibitors of the overexpressed proteins can restore growth. These simple observations form the basis of a powerful assay to identify inhibitors of such proteins. An expression plasmid for the inducible expression of a gene of interest is introduced into a yeast strain rendered more sensitive to chemicals by deletion of efflux pumps. Protein expression is induced, cells are exposed to test chemicals, and growth is measured by optical density at 600 nm (OD600 or A600) reading.
In the instant case, a S. cerevisiae gcs1 knockout strain is employed bearing a vector expressing the heterologous protein hArfGAP1 (human ArfGAP1, the human ortholog of yeast GCS1). Generally, expression of ArfGAP1 will suppress growth of gcs1 knockout yeast and thus small molecules that inhibit ArfGAP1 will lead to observable increases in growth. This in turn allows for the direct identification of small molecules that could be used to treat LRRK2-mutation induced PD.
PPY17:114-3B-vec (gcs1::NatR, pdr5::HIS3, snq2::TRP1, ura3, ade2, carrying plasmid pRS315) [empty vector control strain]; PPY17:114-3B-141-A (gcs1::NatR, pdr5::HIS3, snq2::TRP1, ura3, ade2, carrying plasmid pPP16:141 pGAL1-hArfGAP1) [human ArfGAP1-expressing strain].
1. The day before screening, the control strain containing the empty plasmid and the selected test strain bearing the plasmid with the gene of interest were inoculated into 2 mL of SC selection medium containing 2% glucose. Cells were grown overnight at 30° C. with shaking at 220 rpm. Note: it can be observed that the yeast strain expressing human expression vector and the yeast strain containing the empty vector grow at the same rate in glucose, which represses ArfGAP1 expression.
4. The pellet was suspended in 1-mL sterile water and the A 600 was measured. […]
9. Stacks of five plates were shaken on a vortexer at low speed (e.g., setting 4 of a Genie 2 Vortex mixer) for 90 s to resuspend the yeast cells, and the A 600 was measured using a 96-well plate reader. […]

T1 sequence (Q8N6T3 whole entry): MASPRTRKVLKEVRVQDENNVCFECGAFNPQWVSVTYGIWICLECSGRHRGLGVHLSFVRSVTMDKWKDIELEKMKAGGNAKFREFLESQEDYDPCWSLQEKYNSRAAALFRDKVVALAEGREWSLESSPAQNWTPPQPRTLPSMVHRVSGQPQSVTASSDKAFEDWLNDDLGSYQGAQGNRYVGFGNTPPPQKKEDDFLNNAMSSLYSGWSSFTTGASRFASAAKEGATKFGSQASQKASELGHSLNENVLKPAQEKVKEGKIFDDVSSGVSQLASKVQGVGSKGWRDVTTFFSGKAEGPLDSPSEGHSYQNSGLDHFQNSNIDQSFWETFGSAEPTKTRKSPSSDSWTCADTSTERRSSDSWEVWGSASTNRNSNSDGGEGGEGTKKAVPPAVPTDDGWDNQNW

Growth of yeast ArfGAP1 gcs1 knockout strains, dose-dependent growth:
O=[N+]([O-])c1ccc(N2CCN(Cc3cccs3)CC2)cc1 [compound 5261344], CC(=O)c1ccc(N2CCN(CC3=CC[C@H]4C[C@@H]3C4(C)C)CC2)cc1 [compound 5429814], C/C=C(\C)CN1CCN(c2ccc(C(C)=O)cc2)CC1 [compound 5431942]
